# From patent US20120313040A1, “COATING LIQUID, OPTICAL ANISOTROPIC FILM AND IMAGE DISPLAY DEVICE” (NITTO DENKO CORPORATION, priority 2011, published 2012)
# Like-named read-outs stand apart in the source and are kept apart here.
# Tests used:
# [1] = Observation of liquid crystal phase of the coating liquid under a polarizing microscope; assay type: physicochemical; settings: 30 mass % in ion-exchanged water, observed at 23° C.
# Excerpt: A small amount of the coating liquid was sandwiched between two glass slides, and a liquid crystal phase thereof was observed using a polarizing microscope (manufactured by Olympus Corporation, product name: “OPTIPHOT-POL”) equipped with a large-sized sample heating/cooling stage for microscope (manufactured by Japan High Tech Co., Ltd., product: name “10013L”).
# [2] = Dissolution in ion-exchanged water to prepare a 30 mass % coating liquid; assay type: physicochemical
# Method: The lyotropic liquid crystalline compound of formula (4) was dissolved in ion-exchanged water, thereby preparing a coating liquid having a concentration of the lyotropic liquid crystalline compound of 30 mass %.
# The lyotropic liquid crystalline compound of formula (5) was dissolved in ion-exchanged water, thereby preparing a coating liquid having a concentration of the lyotropic liquid crystalline compound of 30 mass %.
# In Comparative Example 1, there was used a perylenetetracarboxylic acid diimide represented by formula (6), which was an intermediate product in Synthesis Example 1 of Lyotropic Liquid Crystalline Compound. Using this compound, it was tried to obtain a coating liquid having a concentration of the lyotropic liquid crystalline compound of 30 mass % in the same manner as in Example 1.
# In Comparative Example 2, there was used a compound represented by formula (7), which was an intermediate product in Synthesis Example 2 of Lyotropic Liquid Crystalline Compound. Using this compound, it was tried to obtain a coating liquid having a concentration of the lyotropic liquid crystalline compound of 30 mass % in the same manner as in Example 1.
Compound,liquid crystal phase of coating liquid [1],solubility in ion-exchanged water [2],"solubility in ion-exchanged water ([2]; ion-exchanged water, target concentration 30 mass %)"
"O=c1c2ccc3c4ccc5c6c(ccc(c7ccc(c2c37)c2nc3cnccc3n12)c46)c(=O)n1c2ccncc2nc51 [formula (7), reference compound]",no liquid crystal phase,scarcely dissolved in ion-exchanged water,–
C[n+]1ccc2c(c1)nc1c3ccc4c5ccc6c(=O)n7c8cc[n+](C)cc8nc7c7ccc(c8ccc(c(=O)n21)c3c84)c5c67 [formula (5)],nematic liquid crystal phase,dissolved in water easily and well,–
"O=C1c2ccc3c4ccc5c6c(ccc(c7ccc(c2c37)C(=O)N1c1ccncc1)c64)C(=O)N(c1ccncc1)C5=O [formula (6), perylenetetracarboxylic acid diimide, reference compound]",–,scarcely dissolved in ion-exchanged water,–
"C[n+]1ccc(N2C(=O)c3ccc4c5ccc6c7c(ccc(c8ccc(c3c48)C2=O)c75)C(=O)N(c2cc[n+](C)cc2)C6=O)cc1 [formula (4), N,N′-bis(4-N-methylpyridyl)-3,4,9,10-perylenecarboxylic acid diimide dichloride]",nematic liquid crystal phase,–,dissolved in water easily and well
